# PMC2680759, “Non-Invasive Molecular Imaging of Fibrosis Using a Collagen-Targeted Peptidomimetic of the Platelet Collagen Receptor Glycoprotein VI” (PLoS ONE, 2009)
# Bridges are numbered along the chain shown (N, C = ends). Where no end group is shown, it is not given here.
# Tests used:
# Format in all cases: binding
# Settings in all cases: biotin-peptide 50 µg/mL, microtitration plate, n = 3
# [1] = target: T1, type III collagen (Homo sapiens, UniProt P02461); assay: Solid phase assay, type III collagen
# T1 sequence (P02461 154-1221 limits assumed): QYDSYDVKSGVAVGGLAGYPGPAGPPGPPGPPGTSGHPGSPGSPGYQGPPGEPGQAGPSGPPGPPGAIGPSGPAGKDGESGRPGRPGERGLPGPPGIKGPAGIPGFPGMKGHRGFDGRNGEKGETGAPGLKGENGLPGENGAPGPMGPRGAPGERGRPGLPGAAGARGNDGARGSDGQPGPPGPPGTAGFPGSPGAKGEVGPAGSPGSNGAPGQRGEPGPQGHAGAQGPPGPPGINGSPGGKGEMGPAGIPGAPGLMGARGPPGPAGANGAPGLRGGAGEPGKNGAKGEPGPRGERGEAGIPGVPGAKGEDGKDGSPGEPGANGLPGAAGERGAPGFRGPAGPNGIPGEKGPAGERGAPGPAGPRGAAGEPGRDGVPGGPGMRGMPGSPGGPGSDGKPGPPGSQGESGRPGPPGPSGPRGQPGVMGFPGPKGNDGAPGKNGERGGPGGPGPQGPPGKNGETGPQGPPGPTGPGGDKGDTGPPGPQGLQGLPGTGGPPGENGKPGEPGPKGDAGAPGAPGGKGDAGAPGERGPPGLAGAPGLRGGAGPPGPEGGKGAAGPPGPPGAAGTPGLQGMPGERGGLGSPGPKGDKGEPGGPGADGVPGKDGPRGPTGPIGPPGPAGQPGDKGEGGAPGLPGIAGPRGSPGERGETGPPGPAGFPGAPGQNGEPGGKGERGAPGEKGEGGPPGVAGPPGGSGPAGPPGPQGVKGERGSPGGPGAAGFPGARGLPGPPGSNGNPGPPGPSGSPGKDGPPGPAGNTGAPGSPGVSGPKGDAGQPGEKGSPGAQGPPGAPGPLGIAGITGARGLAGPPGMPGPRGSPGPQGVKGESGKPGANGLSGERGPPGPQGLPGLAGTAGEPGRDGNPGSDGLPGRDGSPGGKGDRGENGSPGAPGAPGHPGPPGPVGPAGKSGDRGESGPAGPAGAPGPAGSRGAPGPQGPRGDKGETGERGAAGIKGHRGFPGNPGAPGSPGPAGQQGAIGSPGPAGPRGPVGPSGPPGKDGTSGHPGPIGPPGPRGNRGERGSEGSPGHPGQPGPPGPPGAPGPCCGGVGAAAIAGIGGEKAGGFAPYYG
# [2] = target: T2, vitronectin (Rattus norvegicus, UniProt F7F5X0); assay: Solid phase assay, vitronectin
# T2 sequence (F7F5X0 20-490): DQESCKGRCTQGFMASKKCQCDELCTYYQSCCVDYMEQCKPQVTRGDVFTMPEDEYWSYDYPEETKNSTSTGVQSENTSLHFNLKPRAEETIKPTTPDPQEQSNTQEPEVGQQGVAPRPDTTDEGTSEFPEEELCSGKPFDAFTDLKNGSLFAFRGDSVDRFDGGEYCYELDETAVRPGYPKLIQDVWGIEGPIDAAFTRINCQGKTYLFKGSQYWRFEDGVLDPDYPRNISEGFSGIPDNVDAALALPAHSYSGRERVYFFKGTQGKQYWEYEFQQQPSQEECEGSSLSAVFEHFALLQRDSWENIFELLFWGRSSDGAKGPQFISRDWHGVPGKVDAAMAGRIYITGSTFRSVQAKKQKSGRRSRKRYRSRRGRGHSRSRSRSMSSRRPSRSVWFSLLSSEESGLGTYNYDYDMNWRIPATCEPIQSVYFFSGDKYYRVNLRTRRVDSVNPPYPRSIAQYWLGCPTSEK
# Procedure: (§1) Biotin-peptides (50 µg.mL^−1) were incubated on microtitration wells, coated with 1 µg of type-I collagen, convulxin, collagen related peptides, bovine fibrinogen, human fibronectin, rat vitronectin, murine laminin or bovine serum albumin. Bound peptides were detected using HRP-coupled extravidin and the HRP substrate O-phenyl-dianisidine.
# [3] = target: fibronectin (Homo sapiens, UniProt P02751); assay: Solid phase assay, fibronectin
# Sequence of fibronectin (P02751 32-2477): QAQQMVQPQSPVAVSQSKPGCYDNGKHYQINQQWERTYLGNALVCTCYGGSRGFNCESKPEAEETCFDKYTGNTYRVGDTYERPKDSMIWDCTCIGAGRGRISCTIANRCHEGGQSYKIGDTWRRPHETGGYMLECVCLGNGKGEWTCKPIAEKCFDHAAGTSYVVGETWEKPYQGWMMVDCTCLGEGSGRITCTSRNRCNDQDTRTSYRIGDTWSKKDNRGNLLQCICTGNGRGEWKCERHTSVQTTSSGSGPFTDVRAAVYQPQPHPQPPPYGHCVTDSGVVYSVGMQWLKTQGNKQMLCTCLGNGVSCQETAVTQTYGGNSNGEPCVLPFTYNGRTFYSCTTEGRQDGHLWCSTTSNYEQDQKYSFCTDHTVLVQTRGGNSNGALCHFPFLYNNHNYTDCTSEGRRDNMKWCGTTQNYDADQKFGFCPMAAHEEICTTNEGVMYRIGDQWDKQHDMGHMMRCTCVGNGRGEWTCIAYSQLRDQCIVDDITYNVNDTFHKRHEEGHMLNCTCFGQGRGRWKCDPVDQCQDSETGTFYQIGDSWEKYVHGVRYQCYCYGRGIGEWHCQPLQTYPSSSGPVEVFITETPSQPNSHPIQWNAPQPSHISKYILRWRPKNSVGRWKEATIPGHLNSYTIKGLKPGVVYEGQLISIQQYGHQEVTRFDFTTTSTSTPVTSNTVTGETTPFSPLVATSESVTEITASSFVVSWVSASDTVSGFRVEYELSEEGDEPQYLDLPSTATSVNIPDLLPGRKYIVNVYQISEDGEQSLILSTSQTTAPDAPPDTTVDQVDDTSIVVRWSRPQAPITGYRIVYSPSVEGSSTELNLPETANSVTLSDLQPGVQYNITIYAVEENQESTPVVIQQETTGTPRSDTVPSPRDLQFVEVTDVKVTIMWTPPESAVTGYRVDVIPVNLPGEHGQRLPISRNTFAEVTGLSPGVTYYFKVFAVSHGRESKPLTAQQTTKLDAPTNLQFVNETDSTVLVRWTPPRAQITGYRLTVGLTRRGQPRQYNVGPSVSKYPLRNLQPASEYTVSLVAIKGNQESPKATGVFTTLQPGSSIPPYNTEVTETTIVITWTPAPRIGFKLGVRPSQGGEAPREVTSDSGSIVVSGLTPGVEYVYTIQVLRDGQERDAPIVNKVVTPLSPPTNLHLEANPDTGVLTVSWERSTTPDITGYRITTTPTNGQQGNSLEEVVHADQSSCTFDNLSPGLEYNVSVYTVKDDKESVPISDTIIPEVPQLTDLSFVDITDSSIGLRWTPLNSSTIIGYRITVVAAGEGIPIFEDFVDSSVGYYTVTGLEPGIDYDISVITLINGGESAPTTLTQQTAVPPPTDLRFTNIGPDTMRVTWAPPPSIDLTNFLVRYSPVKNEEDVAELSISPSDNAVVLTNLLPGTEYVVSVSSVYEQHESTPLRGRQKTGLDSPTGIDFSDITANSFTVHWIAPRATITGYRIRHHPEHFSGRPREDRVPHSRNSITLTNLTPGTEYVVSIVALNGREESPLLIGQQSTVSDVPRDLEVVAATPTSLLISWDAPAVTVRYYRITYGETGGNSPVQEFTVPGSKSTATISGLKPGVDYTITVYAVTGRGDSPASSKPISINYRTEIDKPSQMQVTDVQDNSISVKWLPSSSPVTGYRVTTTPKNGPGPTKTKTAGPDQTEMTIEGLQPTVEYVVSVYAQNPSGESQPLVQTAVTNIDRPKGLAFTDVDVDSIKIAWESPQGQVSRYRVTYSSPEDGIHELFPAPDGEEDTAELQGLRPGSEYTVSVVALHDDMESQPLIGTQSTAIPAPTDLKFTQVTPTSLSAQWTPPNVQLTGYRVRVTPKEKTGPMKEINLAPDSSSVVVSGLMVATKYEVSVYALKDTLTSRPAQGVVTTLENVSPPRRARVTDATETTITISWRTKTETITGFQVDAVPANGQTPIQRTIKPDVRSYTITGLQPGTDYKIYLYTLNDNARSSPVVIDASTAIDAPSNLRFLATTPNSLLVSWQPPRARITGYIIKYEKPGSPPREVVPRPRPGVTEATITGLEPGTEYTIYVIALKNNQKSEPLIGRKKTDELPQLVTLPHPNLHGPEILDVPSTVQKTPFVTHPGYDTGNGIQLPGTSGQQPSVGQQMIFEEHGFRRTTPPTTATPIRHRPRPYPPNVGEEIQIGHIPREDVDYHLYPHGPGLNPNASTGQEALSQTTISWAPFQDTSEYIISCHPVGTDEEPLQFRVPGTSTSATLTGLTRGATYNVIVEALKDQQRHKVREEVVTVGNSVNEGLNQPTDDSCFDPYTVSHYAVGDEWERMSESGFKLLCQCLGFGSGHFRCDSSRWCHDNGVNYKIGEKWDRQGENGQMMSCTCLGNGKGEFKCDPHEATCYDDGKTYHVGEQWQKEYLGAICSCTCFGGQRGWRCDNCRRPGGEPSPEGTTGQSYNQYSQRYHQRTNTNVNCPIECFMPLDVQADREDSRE
# Procedure: as §1
Compound,Binding to immobilized type III collagen [1],Binding to immobilized vitronectin [2],Binding to immobilized fibronectin [3]
CSCC[C@@H]1NC(=O)[C@H](C(C)C)NC(=O)[C@H](CCCNC(=N)N)NC(=O)CNC(=O)[C@@H]2CCCN2C(=O)[C@@H](NC(=O)CNC(=O)[C@H](CO)NC(=O)CNC(=O)[C@H](CO)NC(=O)CCCC[C@@H]2SC[C@@H]3NC(=O)N[C@@H]32)CSSC[C@@H](C(N)=O)NC(=O)[C@@H]2CCCN2C(=O)CNC(=O)[C@H](CCC(=O)O)NC(=O)[C@H](CC(=O)O)NC(=O)[C@H](CC(=O)O)NC(=O)CNC(=O)[C@H](CC(C)C)NC(=O)[C@H](Cc2c[nH]cn2)NC(=O)[C@H](CC(C)C)NC(=O)CNC(=O)[C@H](Cc2c[nH]cn2)NC1=O [collagelin],bound,either to be weak or not to occur at all,either to be weak or not to occur at all
SGSGCGPQGARGLTGASAGGPC (disulfide 5-22 (inferred)) [reference compound],did not bind,did not bind,did not bind
